According to patent US12024506B2, “Compounds” (Oxford University Innovation Limited, priority 2018, dated 2024):

Assays:
[1] = target: T1, GST-human KRas166 (G12V) GPPNHP (Homo sapiens, UniProt P01116, G12V); assay: KRas small-molecule screening by SPR (Biacore T200); assay type: binding; conditions: compound 100 uM, 5% DMSO buffer; immobilised GST-KRas166 (G12V) GPPNHP
T1 construct: made in house; host or cells: E. coli C41(DE3)
Procedure, shortened: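 GST-KRas166 G12V loaded with GPPNHP, captured on anti-GST CM5 chip at 10,000–15,000 RU, GST reference channel. Compounds run at 100 uM in buffer with 100 mM NaCl, 5 mM MgCl2, 5% DMSO, with DMSO solvent correction; Rmax for 1:1 binding taken as 63 RU.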

[2] = test system: H358 cells (ATCC CRL-5807); assay: Cell viability assay 1 (CellTiter-Glo), H358 cells; assay type: cell-based; conditions: Homo sapiens, NCI-H358, 48 h, first value of the cell, read-out: Cell Viability H358 (concentration that decreases cell viability by 50%)
Procedure, shortened: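 H358 cells were grown in RPMI-1640 with 10% FCS and 2 mM L-glutamine, plated at 5000 cells/well and allowed to adhere overnight. Compound was added in 0.5% DMSO final for 48 h at 37° C. Viability was read by CellTiter-Glo luminescence, with the 50% viability-reducing concentration derived from dose-response curves.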

[3] = test system: DLD1 cells (ATCC CCL-221); assay: Cell viability assay 1 (CellTiter-Glo), DLD1 cells; assay type: cell-based; conditions: Homo sapiens, DLD-1 cells, 48 h, second value of the cell, read-out: Cell Viability DLD-1 (concentration that decreases cell viability by 50%)
Procedure, shortened: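 DLD1 cells grown in RPMI-1640 with 10% FCS, 2 mM L-glutamine, 37 °C, 5% CO2, plated overnight then exposed to compound (0.5% DMSO) for 48 h. Viability by CellTiter-Glo luminescence; value is concentration reducing viability by 50% from dose-response curves.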

## COc1nc(-c2cccc3c2OCCO3)ccc1Nc1cccc(C(=O)NCc2cc[nH]c(=O)c2)c1 [Example 165, 3-[6-(2,3-Dihydro-benzo[1,4]dioxin-5-yl)-2-methoxy-pyridin-3-ylamino]-N-(2-oxo-1,2-dihydro-pyridin-4-ylmethyl)-benzamide]
[1]
  SPR Response Units: 114 Response Units
[2]
  IC50: 18.3 µM
[3]
  IC50: 11.1 µM

## COc1nc(-c2cccc3c2OCCO3)ccc1Nc1cccc(C(=O)NCC2CNC(=O)C2)c1 (stereo not drawn) [Example 166, 3-[6-(2,3-Dihydro-benzo[1,4]dioxin-5-yl)-2-methoxy-pyridin-3-ylamino]-N-(5-oxo-pyrrolidin-3-ylmethyl)-benzamide]
[1]
  SPR Response Units: 133 Response Units
[2]
  IC50: 20.5 µM
[3]
  IC50: 8.3 µM

## COc1nc(-c2cccc3c2OCCO3)ccc1Nc1cccc(C(=O)NCC2CCN(C(C)=O)CC2)c1 [Example 167, N-(1-Acetyl-piperidin-4-ylmethyl)-3-[6-(2,3-dihydro-benzo[1,4]dioxin-5-yl)-2-methoxy-pyridin-3-ylamino]-benzamide]
[1]
  SPR Response Units: 73 Response Units
[2]
  IC50: 15.8 µM
[3]
  IC50: 3.5 µM

## COc1nc(-c2cccc3c2OCCO3)ccc1Nc1ccc(CNCc2cc[nH]c(=O)c2)cc1 [Example 170, 4-({4-[6-(2,3-Dihydro-benzo[1,4]dioxin-5-yl)-2-methoxy-pyridin-3-ylamino]-benzylamino}-methyl)-1H-pyridin-2-one]
[1]
  SPR Response Units: 284 Response Units
[2]
  IC50: 13.6 µM
[3]
  IC50: 2 µM

## COc1nc(-c2cccc3c2OCCO3)ccc1Nc1ccc(CNCC2CCN(C(=O)OC(C)(C)C)CC2)cc1 [Example 171, 4-({4-[6-(2,3-Dihydro-benzo[1,4]dioxin-5-yl)-2-methoxy-pyridin-3-ylamino]-benzylamino}-methyl)-piperidine-1-carboxylic acid tert-butyl ester]
[1]
  SPR Response Units: 30 Response Units
[2]
  IC50: 6.6 µM
[3]
  IC50: 0.14 µM

## COc1nc(-c2cccc3c2OCCO3)ccc1Nc1ccc(CNCC2CCC(=O)NC2)cc1 (stereo not drawn) [Example 172, 5-({4-[6-(2,3-Dihydro-benzo[1,4]dioxin-5-yl)-2-methoxy-pyridin-3-ylamino]-benzylamino}-methyl)-piperidin-2-one]
[1]
  SPR Response Units: 174 Response Units
[2]
  IC50: 23.3 µM
[3]
  IC50: 4.7 µM

## COc1nc(-c2cccc3c2OCCO3)ccc1Nc1ccc(CNCC2CNC(=O)C2)cc1 (stereo not drawn) [Example 173, 4-({4-[6-(2,3-Dihydro-benzo[1,4]dioxin-5-yl)-2-methoxy-pyridin-3-ylamino]-benzylamino}-methyl)-pyrrolidin-2-one]
[1]
  SPR Response Units: 147 Response Units
[2]
  IC50: 7.4 µM
[3]
  IC50: 4 µM

## COc1nc(-c2cccc3c2OCCO3)ccc1Nc1ccc(C(=O)NCc2cccnc2)cc1 [Example 175, 4-[6-(2,3-Dihydro-benzo[1,4]dioxin-5-yl)-2-methoxy-pyridin-3-ylamino]-N-pyridin-3-ylmethyl-benzamide]
[1]
  SPR Response Units: 63 Response Units
[2]
  IC50: 15.8 µM
[3]
  IC50: 8.2 µM

## COc1nc(-c2cccc3c2OCCO3)ccc1Nc1ccc(CNCC2CCNCC2)cc1 [Example 178, [6-(2,3-Dihydro-benzo[1,4]dioxin-5-yl)-2-methoxy-pyridin-3-yl]-(4-{[(piperidin-4-ylmethyl)-amino]-methyl}-phenyl)-amine]
[1]
  SPR Response Units: 150 Response Units
[2]
  IC50: 1.8 µM
[3]
  IC50: 0.27 µM

## COc1nc(-c2cccc3c2OCCO3)ccc1Nc1ccc(C(=O)NCC2CCNCC2)cc1 [Example 179, 4-[6-(2,3-Dihydro-benzo[1,4]dioxin-5-yl)-2-methoxy-pyridin-3-ylamino]-N-piperidin-4-ylmethyl-benzamide]
[1]
  SPR Response Units: 162 Response Units
[2]
  IC50: 7.5 µM
[3]
  IC50: 0.39 µM

## COc1nc(-c2cccc3c2OCCO3)ccc1Nc1cccc(C(=O)NCC2CCNCC2)c1 [Example 180, 3-[6-(2,3-Dihydro-benzo[1,4]dioxin-5-yl)-2-methoxy-pyridin-3-ylamino]-N-piperidin-4-ylmethyl-benzamide]
[1]
  SPR Response Units: 197 Response Units
[2]
  IC50: 8.6 µM
[3]
  IC50: 0.65 µM

## COc1nc(-c2cccc3c2OCCO3)ccc1Nc1cccc(C(=O)NCC2CCN(Cc3ccccc3)CC2)c1 [Example 181, N-(1-Benzyl-piperidin-4-ylmethyl)-3-[6-(2,3-dihydro-benzo[1,4]dioxin-5-yl)-2-methoxy-pyridin-3-ylamino]-benzamide]
[1]
  SPR Response Units: 149 Response Units
[2]
  IC50: 4.3 µM
[3]
  IC50: 1.8 µM

## COc1nc(-c2cccc3c2OCCO3)ccc1Nc1cccc(C(=O)NCC2CCNC(=O)C2)c1 (stereo not drawn) [Example 182, 3-[6-(2,3-Dihydro-benzo[1,4]dioxin-5-yl)-2-methoxy-pyridin-3-ylamino]-N-(2-oxo-piperidin-4-ylmethyl)-benzamide]
[1]
  SPR Response Units: 198 Response Units
[2]
  IC50: 27 µM
[3]
  IC50: 11.3 µM

## NCc1ccc(C(=O)N2CCN(c3cccc4c3OCCO4)CC2)cc1 [Example 184, (4-Aminomethyl-phenyl)-[4-(2,3-dihydro-benzo[1,4]dioxin-5-yl)-piperazin-1-yl]-methanone]
[1]
  SPR Response Units: 10 Response Units
[2]
  IC50: 3.6 µM
[3]
  IC50: 1.2 µM

## COc1nc(-c2cccc3c2OCCO3)ccc1Nc1ccc(C(=O)NCC2CCN(Cc3ccccc3)CC2)cc1 [Example 185, N-(1-Benzyl-piperidin-4-ylmethyl)-4-[6-(2,3-dihydro-benzo[1,4]dioxin-5-yl)-2-methoxy-pyridin-3-ylamino]-benzamide]
[1]
  SPR Response Units: 122 Response Units
[2]
  IC50: 2.4 µM
[3]
  IC50: 1.2 µM

## COc1nc(-c2cccc3c2OCCO3)ccc1Nc1ccc(CNCC2CCN(C)CC2)cc1 [Example 186, [6-(2,3-Dihydro-benzo[1,4]dioxin-5-yl)-2-methoxy-pyridin-3-yl]-(4-{[(1-methyl-piperidin-4-ylmethyl)-amino]-methyl}-phenyl)-amine]
[1]
  SPR Response Units: 636 Response Units
[2]
  IC50: 2.4 µM
[3]
  IC50: 0.3 µM

## COc1nc(-c2cccc3c2OCCO3)ccc1Nc1ccc(CNCC2CCN(Cc3ccccc3)CC2)cc1 [Example 187, (4-{[(1-Benzyl-piperidin-4-ylmethyl)-amino]-methyl}-phenyl)-[6-(2,3-dihydro-benzo[1,4]dioxin-5-yl)-2-methoxy-pyridin-3-yl]-amine]
[1]
  SPR Response Units: 916 Response Units
[2]
  IC50: 25.9 µM
[3]
  IC50: 2.2 µM

## COc1nc(-c2cccc3c2OCCO3)ccc1Nc1ccc(CNCc2cccc(F)n2)cc1 [Example 188, [6-(2,3-Dihydro-benzo[1,4]dioxin-5-yl)-2-methoxy-pyridin-3-yl]-(4-{[(6-fluoro-pyridin-2-ylmethyl)-amino]-methyl}-phenyl)-amine]
[1]
  SPR Response Units: 103 Response Units
[2]
  IC50: 27.4 µM
[3]
  IC50: 49.5 µM

## COc1nc(-c2cccc3c2OCCO3)ccc1Nc1cccc(CNCC2CCN(C)CC2)c1 [Example 189, [6-(2,3-Dihydro-benzo[1,4]dioxin-5-yl)-2-methoxy-pyridin-3-yl]-(3-{[(1-methyl-piperidin-4-ylmethyl)-amino]-methyl}-phenyl)-amine]
[1]
  SPR Response Units: 552 Response Units
[2]
  IC50: 44.9 µM
[3]
  IC50: 1.4 µM
